Measured values from EP3033337B1, “SUBSTITUTED IMIDAZOLES AS N-TYPE CALCIUM CHANNEL BLOCKERS” (Janssen Pharmaceutica NV, priority 2013, dated 2015).
Read-outs that look alike come from different tables or passages of the source. Blank lines part the entries; values can stand above or below the molecule they belong to.

Tests used:
[1] = system: CFA-induced mechanical allodynia; test: Complete Freund's Adjuvant (CFA) induced mechanical allodynia, Von Frey test; assay type: in vivo
Description: Animals arrived and were acclimatized for 1-2 weeks in a temperature-controlled room with a 12 h light/dark cycle and allowed free access to standard laboratory chow and water.
CFA (Sigma) was injected intra-plantar (75 µg/150 µL) from a concentration of 1:1 (diluted 1 mg/ mL of CFA in 1 mL ofPBS). CFA-induced mechanical allodynia was quantified by a Von frey test on day 2 (48 h post injection of CFA) and animals were randomized based on iPWT response (Dixon 1980). […] Animals were administered a compound of Formula (I) through appropriate route based on their pharmacokinetic properties. Responses were measured with a Von-Frey filament. The maximum possible effect (% MPE) was determined as 100% if sensitivity in ipsilateral paw neared that of the contralateral paw. Values from the vehicle-treated animals were considered 0%. The compound effect was determined based on these values.

Rats = test: Sciatic nerve ligation (SNL) model of neuropathic pain, L5/L6 spinal nerve ligation, von Frey filaments; assay type: in vivo; settings: response at Tmax
From the text: Left L5 and L6 spinal nerves are isolated adjacent to the vertebral column and were ligated with 5-0 silk suture distal to the dorsal root ganglion, as described by Kim and Chung (1992). The incision was closed with the help of GLUture topical tissue adhesive. At 14 days post-surgery (one day prior to test compound administration), mechanical allodynia was quantified using eight von Frey filaments, calibrated in the range 0.4-15.1 g (Nielsen et al 2005). Rats were placed into individual plastic containers on top of a suspended wire mesh grid and acclimated to the test chambers for at least 15 min. Filaments were applied perpendicular to the mid-plantar paw surface, with enough force to cause slight buckling, and held in place for 6-8 sec until a response was noted as a sharp paw withdrawal, flinching, licking and/or biting immediately upon removal of the filament (Nielsen et al 2005). […] Test compounds of Formula (I) were administered and a response was measured at Tmax. The maximum possible effect (% MPE) was determined to be 100% if the sensitivity in the ipsilateral paw neared that of the contralateral paw. Values from vehicle-treated animals were considered 0 %. The compound effect was determined based on these values.

human N-type Ca channel [2] = target: T1, human N-type Ca channel (Homo sapiens, UniProt Q00975); test: Calcium influx assay (FDSS), KCl depolarization, Fluo8 dye; assay type: cell-based; parameters: host or cells: HEK 293
Outline: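 HEK293 cells stably expressing the human N-type Ca channel were loaded with Fluo8 and washed in choline-based buffer (pH 7.2, 2 mM CaCl2, 2 mM KCl). Cells were preincubated with serially diluted compound for 15 min in the dark. Ca influx was then recorded by fluorescence after depolarization with 100 mM KCl.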

human N-type Ca channel [3] = target: T1, human N-type Ca channel; test: Electrophysiological response, QPatch (depolarization -80 mV to +20 mV); settings: for IC50: concentration range 0.01-1 µM

T1 sequence (Q00975 whole entry): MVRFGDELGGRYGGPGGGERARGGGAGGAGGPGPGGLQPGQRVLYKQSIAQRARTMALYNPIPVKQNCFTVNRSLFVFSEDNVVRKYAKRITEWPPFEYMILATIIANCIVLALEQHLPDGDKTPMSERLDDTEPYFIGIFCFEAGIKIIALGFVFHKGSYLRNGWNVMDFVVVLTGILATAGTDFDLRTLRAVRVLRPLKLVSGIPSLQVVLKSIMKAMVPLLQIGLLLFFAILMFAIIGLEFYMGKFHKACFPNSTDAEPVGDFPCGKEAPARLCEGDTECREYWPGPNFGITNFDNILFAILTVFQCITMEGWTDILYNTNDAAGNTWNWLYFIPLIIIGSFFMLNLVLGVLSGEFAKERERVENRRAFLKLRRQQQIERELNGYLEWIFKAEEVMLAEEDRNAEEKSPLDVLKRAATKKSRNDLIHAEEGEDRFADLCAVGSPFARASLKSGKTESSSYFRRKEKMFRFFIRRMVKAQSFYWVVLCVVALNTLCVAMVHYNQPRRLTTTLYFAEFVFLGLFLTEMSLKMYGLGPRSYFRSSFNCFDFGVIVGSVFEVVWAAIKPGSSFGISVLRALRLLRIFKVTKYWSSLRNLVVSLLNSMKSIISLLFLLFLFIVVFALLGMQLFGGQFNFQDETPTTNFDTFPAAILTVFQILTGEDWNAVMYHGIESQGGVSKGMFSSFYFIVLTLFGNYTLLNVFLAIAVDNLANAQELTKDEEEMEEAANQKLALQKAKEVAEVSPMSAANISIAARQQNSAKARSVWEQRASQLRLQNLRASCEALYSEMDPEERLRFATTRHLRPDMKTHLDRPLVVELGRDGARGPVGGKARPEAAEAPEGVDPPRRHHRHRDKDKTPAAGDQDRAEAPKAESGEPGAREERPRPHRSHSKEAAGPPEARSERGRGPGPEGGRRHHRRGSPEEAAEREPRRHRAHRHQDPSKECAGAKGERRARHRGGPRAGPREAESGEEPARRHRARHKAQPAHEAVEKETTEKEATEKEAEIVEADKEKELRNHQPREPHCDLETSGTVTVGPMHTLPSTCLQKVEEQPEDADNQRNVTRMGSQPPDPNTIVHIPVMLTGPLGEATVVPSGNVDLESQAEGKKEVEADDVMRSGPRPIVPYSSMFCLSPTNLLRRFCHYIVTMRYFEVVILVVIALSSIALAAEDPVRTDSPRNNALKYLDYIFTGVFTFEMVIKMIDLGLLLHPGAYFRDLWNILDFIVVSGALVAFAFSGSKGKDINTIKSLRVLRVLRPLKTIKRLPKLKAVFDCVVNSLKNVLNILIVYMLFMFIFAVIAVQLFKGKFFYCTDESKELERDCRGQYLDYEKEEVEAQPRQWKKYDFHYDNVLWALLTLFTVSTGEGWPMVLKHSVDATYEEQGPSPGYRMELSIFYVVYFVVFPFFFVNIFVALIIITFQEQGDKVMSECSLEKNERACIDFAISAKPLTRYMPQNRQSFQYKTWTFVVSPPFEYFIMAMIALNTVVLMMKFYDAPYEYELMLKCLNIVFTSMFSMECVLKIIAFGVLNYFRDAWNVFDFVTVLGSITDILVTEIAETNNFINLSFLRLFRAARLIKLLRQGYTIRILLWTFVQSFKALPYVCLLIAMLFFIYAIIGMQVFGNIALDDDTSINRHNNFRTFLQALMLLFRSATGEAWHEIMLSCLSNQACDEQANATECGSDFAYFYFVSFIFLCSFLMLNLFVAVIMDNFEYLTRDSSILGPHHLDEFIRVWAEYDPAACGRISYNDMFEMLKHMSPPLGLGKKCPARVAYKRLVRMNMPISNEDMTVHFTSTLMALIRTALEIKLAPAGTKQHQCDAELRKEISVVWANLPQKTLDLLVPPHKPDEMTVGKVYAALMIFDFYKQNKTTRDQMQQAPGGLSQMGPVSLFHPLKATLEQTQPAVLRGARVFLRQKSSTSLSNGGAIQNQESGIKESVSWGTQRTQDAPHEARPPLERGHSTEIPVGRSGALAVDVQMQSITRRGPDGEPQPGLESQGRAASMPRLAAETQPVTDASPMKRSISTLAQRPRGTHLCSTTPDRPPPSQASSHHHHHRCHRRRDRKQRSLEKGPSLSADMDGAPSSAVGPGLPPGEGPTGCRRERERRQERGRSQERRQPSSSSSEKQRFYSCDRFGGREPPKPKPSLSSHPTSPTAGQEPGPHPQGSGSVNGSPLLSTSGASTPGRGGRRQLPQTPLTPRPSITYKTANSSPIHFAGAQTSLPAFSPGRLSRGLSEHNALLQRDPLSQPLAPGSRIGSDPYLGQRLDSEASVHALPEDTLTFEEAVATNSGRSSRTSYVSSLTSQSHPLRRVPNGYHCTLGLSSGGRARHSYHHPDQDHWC
T1 sequence (P54284 whole entry partner): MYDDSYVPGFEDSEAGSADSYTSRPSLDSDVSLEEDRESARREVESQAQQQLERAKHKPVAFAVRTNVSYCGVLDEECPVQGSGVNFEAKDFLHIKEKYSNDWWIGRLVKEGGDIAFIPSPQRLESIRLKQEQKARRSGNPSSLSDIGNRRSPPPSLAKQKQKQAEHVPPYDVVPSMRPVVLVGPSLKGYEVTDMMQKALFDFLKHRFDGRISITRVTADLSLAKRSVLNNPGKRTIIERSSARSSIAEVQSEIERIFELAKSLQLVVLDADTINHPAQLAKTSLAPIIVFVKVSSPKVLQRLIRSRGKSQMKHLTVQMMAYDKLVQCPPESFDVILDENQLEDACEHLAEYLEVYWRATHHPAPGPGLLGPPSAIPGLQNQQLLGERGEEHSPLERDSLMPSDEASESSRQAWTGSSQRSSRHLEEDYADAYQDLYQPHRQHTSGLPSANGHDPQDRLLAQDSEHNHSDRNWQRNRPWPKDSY
T1 sequence (P54289 25-956 partner limits assumed): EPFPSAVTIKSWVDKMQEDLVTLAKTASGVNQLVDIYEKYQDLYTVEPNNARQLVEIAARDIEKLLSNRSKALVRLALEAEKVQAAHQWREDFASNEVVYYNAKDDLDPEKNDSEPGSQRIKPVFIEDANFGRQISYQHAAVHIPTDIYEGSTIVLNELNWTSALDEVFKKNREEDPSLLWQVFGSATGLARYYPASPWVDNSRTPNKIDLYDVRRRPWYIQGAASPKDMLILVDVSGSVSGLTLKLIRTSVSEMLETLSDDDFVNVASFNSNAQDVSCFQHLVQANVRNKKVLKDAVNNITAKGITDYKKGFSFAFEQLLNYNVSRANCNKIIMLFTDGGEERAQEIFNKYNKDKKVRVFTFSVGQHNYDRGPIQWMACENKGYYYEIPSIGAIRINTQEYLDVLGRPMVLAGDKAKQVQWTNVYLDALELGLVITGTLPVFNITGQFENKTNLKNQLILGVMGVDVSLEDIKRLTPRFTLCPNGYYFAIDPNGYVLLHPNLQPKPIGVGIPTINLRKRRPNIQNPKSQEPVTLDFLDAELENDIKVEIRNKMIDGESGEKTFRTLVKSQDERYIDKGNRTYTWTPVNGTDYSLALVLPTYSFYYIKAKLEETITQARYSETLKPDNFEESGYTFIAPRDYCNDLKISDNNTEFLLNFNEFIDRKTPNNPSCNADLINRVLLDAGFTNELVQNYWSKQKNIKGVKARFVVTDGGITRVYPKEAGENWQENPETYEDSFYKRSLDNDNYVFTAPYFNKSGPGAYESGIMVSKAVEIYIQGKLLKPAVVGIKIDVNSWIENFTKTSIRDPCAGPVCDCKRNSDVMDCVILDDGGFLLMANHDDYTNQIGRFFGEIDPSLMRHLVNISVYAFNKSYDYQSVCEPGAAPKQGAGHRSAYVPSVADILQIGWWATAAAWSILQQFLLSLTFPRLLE
T1 sequence (P54289 957-1103 partner limits assumed): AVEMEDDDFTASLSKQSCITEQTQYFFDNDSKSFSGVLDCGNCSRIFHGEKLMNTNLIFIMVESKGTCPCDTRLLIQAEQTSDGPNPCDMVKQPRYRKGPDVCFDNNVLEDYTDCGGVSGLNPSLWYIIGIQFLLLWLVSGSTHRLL

IC50 (human N-type Ca channel [2]; HEK 293 cells expressing human N-type Ca channel, 100 mM KCl, read-out: N Type IC50 Data FDSS): 41 nM
IC50 (human N-type Ca channel [3]; N Type IC50 Data Qpatch Pulse=1, Pulse=1): 365 nM
IC50 (human N-type Ca channel [3]; N Type IC50 Data Qpatch Pulse=15, Pulse=15): > 1000 nM
SMILES: COc1ccccc1-c1nc(C2CC(C)(C)OC(C)(C)C2)cn1-c1ccc(C#N)cc1 [Compound 1, 4-[2-(2-Methoxyphenyl)-4-(2,2,6,6-tetramethyltetrahydro-2H-pyran-4-yl)-1H-imidazol-1-yl]benzonitrile]
CFA (% Reversal) ([1]; Dose 12.5 mg/kg): 19.73±8.25%
CFA (% Reversal) ([1]; Dose 25 mg/kg): 37.62±7.17%
CFA (% Reversal) ([1]; Dose 50 mg/kg): 58.8±10.22%
CFA (% Reversal) ([1]; Dose 100 mg/kg): 75.26±8.96%
SNL(%MPE) (Rats; Dose 12.5 mg/kg): 22.21±7.61%
SNL(%MPE) (Rats; Dose 25 mg/kg): 40.9±20.29%
SNL(%MPE) (Rats; Dose 100 mg/kg): 75±13.01%

SMILES: COc1ncccc1-c1nc(C2CC(C)(C)OC(C)(C)C2)cn1-c1ccc(Cl)cc1 [Compound 11, 3-(1-(4-chlorophenyl)-4-(2,2,6,6-tetramethyltetrahydro-2H-pyran-4-yl)-1H-imidazol-2-yl)-2-methoxypyridine]
CFA (% Reversal) ([1]; Dose 3 mg/kg): 20.97±7.88%
CFA (% Reversal) ([1]; Dose 10 mg/kg): 41.12±5.14%
CFA (% Reversal) ([1]; Dose 30 mg/kg): 55.8±11.32%
CFA (% Reversal) ([1]; Dose 60 mg/kg): 76.4±3.78%
SNL(%MPE) (Rats; Dose 3 mg/kg): 28.29± 10.84%
SNL(%MPE) (Rats; Dose 10 mg/kg): 49.01±9.93%
SNL(%MPE) (Rats; Dose 30 mg/kg): 70.69±10.3%
SNL(%MPE) (Rats; Dose 60 mg/kg): 96.18±3.22%
IC50 (human N-type Ca channel [2]): 82 nM
inhibition at 10 µM (human N-type Ca channel [3]; read-out: Qpatch Pulse=1 (percent inhibition)): 63%
inhibition at 10 µM (human N-type Ca channel [3]; read-out: Qpatch Pulse=15 (percent inhibition)): 21%
